Consider 22 compounds from article PMC8002823, “Synthesis and Structure–Activity Relationships of Aristoyagonine Derivatives as Brd4 Bromodomain Inhibitors with X-ray Co-Crystal Research” (Molecules, 2021).

The structures appear in SMILES notation.

In one data set the test system is Ty82 cells. As to the kind of experiment: Cell cytotoxic assay in Ty82 cells. Format: cell-based. The note with it: Homo sapiens; for CC50: Ty82 cell cytotoxic activity, 72 h; for IC50: TY82, cell cytotoxic activity (Table 4 head prints IC50). The method, then: For the viability experiments, Ty82 cells were seeded in 96-well plates at 30% confluency and exposed to chemicals the next day. After 72 h, WST-1 reagent was added, and absorbance at 450 nm was measured by using a Spectramax spectrophotometer (Molecular Devices, San Jose, CA, USA) in accordance with the manufacturer’s instructions. The CC50 values were calculated by using GraphPad Prism version 5 for Windows. The curves were fitted using a nonlinear regression model with a log (inhibitor) versus response formula.

The next data set deals with T1, Brd4 bromodomain (Homo sapiens, UniProt O60885).
T1 construct: glutathione-S-transferase (GST) and His-tagged bromodomain; made in house
As to the kind of experiment: Alpha-screen enzyme assay (bromodomain binding to acetylated histone peptide).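 As to all read-outs here: AlphaScreen proximity readout pairing streptavidin donor beads with anti-GST acceptor beads, with hits checked against bead interference using a TruHit control kit.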 The note with it: for IC50 / inhibitory activity against Brd4 bromodomain (in words): alpha-screen assay; for IC50: inhibition of bromodomain binding activity, calculated with Prism6.

Procedure for Brd4 bromodomain: Bromodomain was prepared as previously described. […] Streptavidin-coated donor beads and anti-GST alpha-screen acceptor beads were added under low-light condition. […] The alpha-screen results were confirmed by using alpha-screen TruHit kits (PerkinElmer, USA).

Take `CCOc1ccc2c3c1Oc1ccc(OCc4ccccn4)cc1C=C3N(C)C2=O` [Compound 8bn, 5-Ethoxy-1-methyl-9-(pyridine-2-ylmethoxy)benzo[6,7]oxepino[4,3,2-cd]isoindol-2(1H)-one]: the melting point lay within 188 to 190 °C. The compound further gave a CC50 in the data set on Ty82 cells of 0.36 µM. For the same compound, the IC50 at Brd4 bromodomain was 0.68 µM.
The like results for `CCOc1ccc2c3c1Oc1ccc(OCCN(CC)CC)cc1C=C3N(C)C2=O` [Compound 8bm, 9-(2-(Diethylamino)ethoxy)-5-ethoxy-1-methylbenzo[6,7]oxepino[4,3,2-cd]isoindol-2(1H)-one] were, in that order, 169 to 171 °C, 0.66 µM and 0.91 µM.
The corresponding values for `CCN(CC)CCOc1ccc2c(c1)C=C1c3c(ccc(OC)c3O2)C(=O)N1C` [Compound 8be, 9-(2-(Diethylamino)ethoxy)-5-methoxy-1-methylbenzo[6,7]oxepino[4,3,2-cd]isoindol-2(1H)-one] are 174 to 176 °C, 0.56 µM and 0.86 µM.
With `CCCc1ccc2c3c1Oc1ccc(OCc4ccccc4)cc1C=C3N(C)C2=O` [Compound 8dd, 9-(Benzyloxy)-1-methyl-5-propylbenzo[6,7]oxepino[4,3,2-cd]isoindol-2(1H)-one], the melting point is 203 to 205 °C. In the data set on Ty82 cells, this compound gave an IC50 of 10 µM. At Brd4 bromodomain, the IC50 was 9 µM.
Compound `CCOc1ccc2c3c1Oc1cc4c(cc1C=C3N(C)C2=O)OCO4` [Compound 8bp, 5-Ethoxy-1-methyl-[1,3]dioxolo[4”,5”.4′,5′]benzo[1′,2′:6,7]oxepino[4,3,2-cd]isoindol-2(1H)-one] gave a melting point of 207 to 209 °C. In the data set on Ty82 cells, this compound had a CC50 of 3.81 µM. In addition, on Brd4 bromodomain, the “inhibitory activity against Brd4 bromodomain (in words)” value (“inhibitory activity” below) is given as “modest inhibition” and the IC50 is 2.89 µM.
Turning to `CCOc1c(OC)ccc2c1Oc1c(OC)ccc3c1C(=C2)N(C)C3=O` [Compound 8ab, 7-Ethoxy-5,8-dimethoxy-1-methylbenzo[6,7]oxepino[4,3,2-cd]isoindol-2(1H)-one], the “increase in activity compared with 8ae” value on Brd4 bromodomain (Brd4 IC50 ratio) is given as “four-fold increased activity”. The IC50 on Brd4 bromodomain is 0.86 µM.
Regarding `CCOc1ccc2c3c1Oc1ccc(OCc4ccccc4)cc1C=C3N(C)C2=O` [Compound 8bo], the melting point lay within 198 to 200 °C.
On to `CCN(CC)c1ccc2c3c1Oc1ccc(O)cc1C=C3N(C)C2=O` [Compound 8cb, 5-(Diethylamino)-9-hydroxy-1-methylbenzo[6,7]oxepino[4,3,2-cd]isoindol-2(1H)-one], for which the melting point fell in the range of 181 to 183 °C. Moreover, it took 8 µM to reach half-maximal cytotoxicity in the data set on Ty82 cells (CC50). Moreover, at Brd4 bromodomain, the “inhibitory activity” value is “weaker inhibitory effects than 8bd and 8bl”; the IC50 was 4.89 µM.
Consider `CCN(CC)c1ccc2c3c1Oc1ccc(O)cc1CC3N(C)C2=O` (stereo not shown) [Compound 8cc, 5-(Diethylamino)-9-hydroxy-1-methyl-11,11a-dihydrobenzo[6,7]oxepino[4,3,2-cd]isoindol-2(1H)-one], for which the melting point lay in the range of 165 to 167 °C. The same compound registered a CC50 with Ty82 cells of 10 µM. Also, on Brd4 bromodomain, the IC50 was 5.86 µM.
For the compound `COc1ccc(CCOc2c(OC)ccc3c2Oc2c(OC)ccc4c2C(=C3)N(C)C4=O)cc1` [Compound 8ac, 5,8-Dimethoxy-7-(4-methoxyphenethoxy)-1-methylbenzo[6,7]oxepino[4,3,2-cd]isoindol-2(1H)-one], in the data set on Ty82 cells, the CC50 was above 20 µM. Further, the IC50 at Brd4 bromodomain is 3.74 µM.
For the compound `COc1ccc2c3c1Oc1ccc(OCc4ccccn4)cc1C=C3N(C)C2=O` [Compound 8bf, 5-Methoxy-1-methyl-9-(pyridine-2-ylmethoxy)benzo[6,7]oxepino[4,3,2-cd]isoindol-2(1H)-one], the melting point was 176 to 178 °C. In the data set on Ty82 cells, this compound showed a CC50 of 0.23 µM. In addition, on Brd4 bromodomain, the IC50 was 0.91 µM.
`CCOc1ccc2c3c1Oc1c(ccc(OC)c1OC)C=C3N(C)C2=O` [Compound 8ae, 5-Ethoxy-7,8-dimethoxy-1-methylbenzo[6,7]oxepino[4,3,2-cd]isoindol-2(1H)-one] displayed a melting point of 219 to 220 °C. Besides, on Brd4 bromodomain, the “inhibitory activity” value is given as “slightly increased the inhibitory activity compared with 8af” and the IC50 was 4.16 µM.
The corresponding values for `COc1ccc2c3c1Oc1ccc(OCc4ccccc4)cc1C=C3N(C)C2=O` [Compound 8bg, 9-Benzyloxy-5-methoxy-1-methylbenzo[6,7]oxepino[4,3,2-cd]isoindol-2(1H)-one] are 187 to 189 °C, “did not” and above 32 µM.
On to `Cc1ccc2c3c1Oc1ccc(C(F)(F)F)cc1C=C3N(C)C2=O` [Compound 8df, 1,5-Dimethyl-9-(trifluoromethyl)benzo[6,7]oxepino[4,3,2-cd]isoindol-2(1H)-one], for which the melting point was 227 to 229 °C. Moreover, the half-inhibitory concentration (IC50) on Brd4 bromodomain was above 32 µM.
The compound `CCOc1ccc2c3c1Oc1ccc(C(F)(F)F)cc1C=C3N(C)C2=O` [Compound 8bj, 5-Ethoxy-1-methyl-9-(trifluoromethyl)benzo[6,7]oxepino[4,3,2-cd]isoindol-2(1H)-one] displayed a melting point of 230 to 232 °C. Besides, the CC50 in the data set with Ty82 cells was above 20 µM. In addition, the IC50 at Brd4 bromodomain is above 9 µM.
Turning to `COc1ccc2c3c1Oc1cc4c(cc1C=C3N(C)C2=O)OCO4` [Compound 8bh, 5-Methoxy-1-methyl-[1,3]dioxolo[4”,5”.4′,5′]benzo[1′,2′:6,7]oxepino[4,3,2-cd]isoindol-2(1H)-one], the melting point was in the range of 237 to 239 °C. The compound further returned a CC50 in the data set on Ty82 cells of 2.16 µM. Further, on Brd4 bromodomain, the “inhibitory activity” value is “modest inhibition” and the IC50 is 11.1 µM.
In the case of `CCCc1ccc2c3c1Oc1ccc(OCc4ccccn4)cc1C=C3N(C)C2=O` [Compound 8dc, 1-Methyl-5-propyl-9-(pyridine-2-ylmethoxy)benzo[6,7]oxepino[4,3,2-cd]isoindol-2(1H)-one], the figures for the IC50 in the data set on Ty82 cells and on Brd4 bromodomain were 1.77 µM and 1.37 µM, respectively.
`COc1ccc2c3c1Oc1ccc(C(F)(F)F)cc1C=C3N(C)C2=O` [Compound 8bb, 5-Methoxy-1-methyl-9-(trifluoromethyl)benzo[6,7]oxepino[4,3,2-cd]isoindol-2(1H)-one] showed a half-maximal cytotoxic concentration (CC50) with Ty82 cells above 20 µM. Moreover, at Brd4 bromodomain, the “inhibitory activity” value was “no inhibitory activity” and the IC50 was above 32 µM.
As for `CCOc1ccc2c3c1Oc1ccc(OCC(C)C)cc1C=C3N(C)C2=O` [Compound 8bi, 9-Isobutoxy-5-ethoxy-1-methylbenzo[6,7]oxepino[4,3,2-cd]isoindol-2(1H)-one], the melting point fell in the range of 178 to 180 °C. Also, the IC50 at Brd4 bromodomain is above 10 µM.
The like results for `COc1cccc2c1Oc1c(OC)ccc3c1C(=C2)N(C)C3=O` [Compound 8aa, 5,7-Dimethoxy-1-methylbenzo[6,7]oxepino[4,3,2-cd]isoindol-2(1H)-one] were, in that order, 208 to 210 °C and 0.84 µM.
`CCOc1ccc2c3c1Oc1ccc(O)cc1C=C3N(C)C2=O` [Compound 8bl, 5-Ethoxy-9-hydroxy-1-methylbenzo[6,7]oxepino[4,3,2-cd]isoindol-2(1H)-one] displayed a cytotoxic concentration (CC50) in the data set on Ty82 cells of 0.31 µM. Besides, on Brd4 bromodomain, the IC50 is 1.12 µM.
Take `COc1ccc2c3c1Oc1ccc(OCC(C)C)cc1C=C3N(C)C2=O` [Compound 8ba, 9-Isobutoxy-5-methoxy-1-methylbenzo[6,7]oxepino[4,3,2-cd]isoindol-2(1H)-one]: at Brd4 bromodomain, the IC50 was 16.7 µM.
